This passage reports IC50 and viability, T/C results from PubChem BioAssay AID2060327 (Molecular Pharmacology Branch, DTP, NCI, 2025).

For the experiment, the system named is PC-3 multi-cell spheroids, viability. Put plainly: Anticancer human tumor PC-3 cell line growth inhibition [IpAb].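 On all read-outs here: spheroids exposed to compounds for 7 days before readout.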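 On viability, T/C: 100% = DMSO vehicle control wells.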 Conditions: for viability, T/C: stronger effect = lower value. The procedure, abridged: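 Multi-cell spheroids of 60% tumour cells, 25% HUVEC and 15% MSC in ultra-low-attachment U-bottom wells, treated with agents combined with ipatasertib or abemaciclib. Half-log ranges top out near clinical Cmax, or 10 microM when Cmax is unknown.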

The mark [1] stands for this setting: curve of first compound, second compound 0.1 µM.
The mark [2] stands for this setting: curve of first compound, second compound 0.316 µM.
Where [3] appears, read: curve of first compound, second compound 1 µM.
The mark [4] stands for this setting: second compound 0.1 µM, first compound 0.0316 µM.
The mark [5] stands for this setting: second compound 0.1 µM, first compound 0.1 µM.
Setting [6] is: second compound 0.316 µM, first compound 0.0316 µM.
Setting [7] is: second compound 0.316 µM, first compound 0.1 µM.
[8] abbreviates: second compound 1 µM, first compound 0.0316 µM.
[9] abbreviates: second compound 1 µM, first compound 0.1 µM.
[10] abbreviates: curve of first compound, second compound 0.01 µM.
Setting [11] is: curve of first compound, second compound 0.0316 µM.

Values joined by “and” are separate entries in the source; they are usually repeats but may differ in a detail not shown here. Equal entries are not always repeated.

One may read the IC50 as the point on the concentration scale where inhibition reaches its midpoint. In general, viability, T/C refers to the result in the treated group divided by that in the control group, in per cent. Regarding `Cn1nccc1Nc1nccc(-c2ccn(C(CO)c3ccc(Cl)c(F)c3)c(=O)c2)n1` (stereo not drawn) + CC(C)NCC(C(=O)N1CCN(c2ncnc3c2C(C)CC3O)CC1)c1ccc(Cl)cc1, the IC50 under setting [1] was more than 10 µM; the IC50 under setting [2] was less than 0.0316 µM; the IC50 under setting [3] was less than 0.0316 µM; the IC50 (curve of first compound, second compound 3.16 µM) was less than 0.0316 µM; the IC50 (curve of first compound, second compound 10 µM) was less than 0.0316 µM. Besides, the viability, T/C under setting [4] is 76.7%; the viability, T/C under setting [5] was 77.3%; the viability, T/C (second compound 0.1 µM, first compound 0.316 µM) is 83.1%; the viability, T/C (second compound 0.1 µM, first compound 1 µM) was 105%; the viability, T/C (second compound 0.1 µM, first compound 3.16 µM) was 127%; the viability, T/C (second compound 0.1 µM, first compound 10 µM) is 104%. The viability, T/C runs as follows: under setting [6], 42.8%; under setting [7], 43.8%; (second compound 0.316 µM, first compound 0.316 µM) 41.9%; (second compound 0.316 µM, first compound 1 µM) 48%; (second compound 0.316 µM, first compound 3.16 µM) 88.1%; (second compound 0.316 µM, first compound 10 µM) 76.9%. Moreover, the viability, T/C is, setting by setting: under setting [8], 20.4%; under setting [9], 24.2%; (second compound 1 µM, first compound 0.316 µM) 27.2%; (second compound 1 µM, first compound 1 µM) 34.5%; (second compound 1 µM, first compound 3.16 µM) 59.1%; (second compound 1 µM, first compound 10 µM) 34.3%. In addition, the viability, T/C by setting is: (second compound 3.16 µM, first compound 0.0316 µM) 14.2%; (second compound 3.16 µM, first compound 0.1 µM) 15.4%; (second compound 3.16 µM, first compound 0.316 µM) 15.1%; (second compound 3.16 µM, first compound 1 µM) 19.7%; (second compound 3.16 µM, first compound 3.16 µM) 23.4%; (second compound 3.16 µM, first compound 10 µM) 13.8%. In addition, the viability, T/C runs as follows: (second compound 10 µM, first compound 0.0316 µM) 12.7%; (second compound 10 µM, first compound 0.1 µM) 13.3%; (second compound 10 µM, first compound 0.316 µM) 12.2%; (second compound 10 µM, first compound 1 µM) 14.3%; (second compound 10 µM, first compound 3.16 µM) 17.4%; (second compound 10 µM, first compound 10 µM) 10.8%.
Turning to `Cn1ncnc1[C@H]1c2n[nH]c(=O)c3cc(F)cc(c23)N[C@@H]1c1ccc(F)cc1` + CCN1CCN(Cc2ccc(Nc3ncc(F)c(-c4cc(F)c5nc(C)n(C(C)C)c5c4)n3)nc2)CC1, the IC50 is, setting by setting: under setting [10], 0.00902 µM; under setting [11], 0.00223 µM; under setting [1], 0.000803 µM; under setting [2], 0.0284 µM; under setting [3], 0.00512 µM. Moreover, the viability, T/C reads like this: (second compound 0.01 µM, first compound 0.000316 µM) 82%; (second compound 0.01 µM, first compound 0.001 µM) 61.4%; (second compound 0.01 µM, first compound 0.00316 µM) 60.6%; (second compound 0.01 µM, first compound 0.01 µM) 47.1%; (second compound 0.01 µM, first compound 0.0316 µM) 46%; (second compound 0.01 µM, first compound 0.1 µM) 44.3%. In addition, the viability, T/C is 61.5% (second compound 0.0316 µM, first compound 0.000316 µM); 50.8% (second compound 0.0316 µM, first compound 0.001 µM); 47.3% (second compound 0.0316 µM, first compound 0.00316 µM); 49.3% (second compound 0.0316 µM, first compound 0.01 µM); 48% (second compound 0.0316 µM, first compound 0.0316 µM); 39% (second compound 0.0316 µM, first compound 0.1 µM). Moreover, the viability, T/C (second compound 0.1 µM, first compound 0.000316 µM) is 48.2%; the viability, T/C (second compound 0.1 µM, first compound 0.001 µM) is 50.3%; the viability, T/C (second compound 0.1 µM, first compound 0.00316 µM) was 52.1%; the viability, T/C (second compound 0.1 µM, first compound 0.01 µM) was 48.6%; the viability, T/C under setting [4] was 44%; the viability, T/C under setting [5] was 42.7%. Besides, the viability, T/C was 59.6% (second compound 0.316 µM, first compound 0.000316 µM); 58.2% (second compound 0.316 µM, first compound 0.001 µM); 64% (second compound 0.316 µM, first compound 0.00316 µM); 54.5% (second compound 0.316 µM, first compound 0.01 µM); 47.6% under setting [6]; 37.8% under setting [7]. The viability, T/C by setting is: (second compound 1 µM, first compound 0.000316 µM) 61%; (second compound 1 µM, first compound 0.001 µM) 48.8%; (second compound 1 µM, first compound 0.00316 µM) 46.5%; (second compound 1 µM, first compound 0.01 µM) 49.6%; under setting [8], 44.6%; under setting [9], 29.4%.
For `CC(C)NCC(C(=O)N1CCN(c2ncnc3c2C(C)CC3O)CC1)c1ccc(Cl)cc1` (stereo not drawn), the viability, T/C is 72.9% [middle of 13 runs] (compound 0.1 µM); 43.7% [middle of 13 runs] (compound 0.316 µM); 24.7% [middle of 12 runs] (compound 1 µM); 14.9% [middle of 12 runs] (compound 3.16 µM); 13.3% [middle of 13 runs] (compound 10 µM). For the same compound, the IC50 (compound alone, run of 44348) is 249 nM [middle of 13 runs].
In the case of `Cn1ncc(Cl)c1-c1cc(C(=O)NC(CN)Cc2cccc(F)c2)sc1Cl` (stereo not drawn), the viability, T/C runs as follows: (compound 0.0316 µM) 89.7% and 88.1%; (compound 0.1 µM) 62.9% and 60.5%; (compound 0.316 µM) 43.6% and 36.2%; (compound 1 µM) 23% and 19.2%; (compound 3.16 µM) 17.9% and 16.2%; (compound 10 µM) 0.14% and 0.16%. Further, where the note is “curve of compound”, the IC50 is 0.212 µM and 0.165 µM.
For `CC(C)(C)c1cnc(CSc2cnc(NC(=O)C3CCNCC3)s2)o1` + CCN1CCN(Cc2ccc(Nc3ncc(F)c(-c4cc(F)c5nc(C)n(C(C)C)c5c4)n3)nc2)CC1, the IC50 by setting is: under setting [10], 0.175 µM; under setting [11], 0.146 µM; under setting [1], 0.0985 µM; under setting [2], 0.0381 µM; under setting [3], less than 0.00949 µM. Besides, the viability, T/C by setting is: (second compound 0.01 µM, first compound 0.00949 µM) 75.9%; (second compound 0.01 µM, first compound 0.03 µM) 103%; (second compound 0.01 µM, first compound 0.0949 µM) 113%; (second compound 0.01 µM, first compound 0.3 µM) 7.99%; (second compound 0.01 µM, first compound 0.949 µM) 6.01%; (second compound 0.01 µM, first compound 3 µM) 7.44%. In addition, the viability, T/C is 63.5% (second compound 0.0316 µM, first compound 0.00949 µM); 71.5% (second compound 0.0316 µM, first compound 0.03 µM); 94.4% (second compound 0.0316 µM, first compound 0.0949 µM); 4.86% (second compound 0.0316 µM, first compound 0.3 µM); 4.92% (second compound 0.0316 µM, first compound 0.949 µM); 7.51% (second compound 0.0316 µM, first compound 3 µM). Further, the viability, T/C is 69.1% (second compound 0.1 µM, first compound 0.00949 µM); 73.4% (second compound 0.1 µM, first compound 0.03 µM); 51.5% (second compound 0.1 µM, first compound 0.0949 µM); 3.51% (second compound 0.1 µM, first compound 0.3 µM); 6% (second compound 0.1 µM, first compound 0.949 µM); 7.79% (second compound 0.1 µM, first compound 3 µM). The viability, T/C was 55.9% (second compound 0.316 µM, first compound 0.00949 µM); 54.3% (second compound 0.316 µM, first compound 0.03 µM); 30.5% (second compound 0.316 µM, first compound 0.0949 µM); 4.21% (second compound 0.316 µM, first compound 0.3 µM); 5.66% (second compound 0.316 µM, first compound 0.949 µM); 7.81% (second compound 0.316 µM, first compound 3 µM). The viability, T/C (second compound 1 µM, first compound 0.00949 µM) is 44.7%; the viability, T/C (second compound 1 µM, first compound 0.03 µM) was 36.5%; the viability, T/C (second compound 1 µM, first compound 0.0949 µM) was 22.7%; the viability, T/C (second compound 1 µM, first compound 0.3 µM) is 4.97%; the viability, T/C (second compound 1 µM, first compound 0.949 µM) was 7.15%; the viability, T/C (second compound 1 µM, first compound 3 µM) is 8.41%.
